“Also recorded” adds a separate entry of the source. Structures can show the parent of a compound that is named as a salt. Where two headings read alike, the source gives them in different places.
Columns and labels:
hygroscopic character = type: physicochemical; conditions: for physical state after moisture uptake: atmospheric moisture, eventually
Description: (§1) The following determinations were made as to the physical properties of the disodium PALA. Except for the test for stability, these tests were carried out on material free of solvent contamination.
Hygroscopic Character. Tetrasodium PALA absorbs atmospheric moisture 1.5 times faster than the disodium salt.

solubility = type: physicochemical
Description: as §1

[1] = test system: aspartate transcarbamylase; conditions: Stark et al., J. Biol. Chem., 246, 6599 (1971); cited from earlier work
Lewis Lung tumor = conditions: NCI screening program, data through Aug. 31, 1976; cited from earlier work
[2] = test system: pyrimidine nucleotide biosynthesis; conditions: Stark et al. (1974); cited from earlier work
P388 tumor = conditions: NCI screening program, data through Aug. 31, 1976; cited from earlier work
B16 tumor = conditions: NCI screening program, data through Aug. 31, 1976; cited from earlier work
tumor systems = experiment: preliminary in vivo screening of PALA esters; conditions: relative to tetrasodium PALA
[3] = stability on drying in vacuo at 140° (NMR, TLC); type: physicochemical; conditions: dried in vacuo at 140° for 15.5 hours, sample containing acetic acid and ethanol
Description: as §1
Stability. A sample of disodium PALA was dried in vacuo at 140° for 15.5 hours. […] This is believed to be an ester produced at the elevated temperature in the presence of ethanol and acetic acid.

[4] = type: physicochemical
Description: as §1
pH. A 2% solution of the disodium salt in water has a pH of 4.08.

expected tumor systems = experiment: activity of tetrasodium PALA samples in tumor systems; type: in vivo
Excerpt: In spite of the above mentioned problems involving the consistency of elemental analyses and the low hydrogen values, the tetrasodium PALA samples were characterized as highly pure materials by nmr, optical rotation (comparison with literature value), and thin layer chromatography (homogeneous in four different solvent systems).

SMILES: O=C(CP(=O)(O)O)N[C@@H](CC(=O)OCc1ccccc1)C(=O)OCc1ccccc1 [IV, L-Aspartic acid, N-(phosphonoacetyl)-, dibenzyl ester]
- hygroscopicity (in words) (hygroscopic character; listed as dibenzyl PALA): hygroscopic
- water solubility (in words) (solubility): insoluble in water

SMILES: O=C(O)C[C@H](NC(=O)CP(=O)(O)O)C(=O)O [N,N'-dibenzylethylenediamine salt]
- solubility in ethanol (solubility; ethanol, preliminary): soluble in ethanol

SMILES: O=C(O)C[C@H](NC(=O)CP(=O)(O)O)C(=O)O [PALA, N-(phosphonoacetyl)-L-aspartic acid]
- transition state analogue inhibitor of aspartate transcarbamylase [1]: transition state analogue inhibitor of aspartate transcarbamylase
- activity against Lewis Lung tumor system (Lewis Lung tumor): active
- inhibition of pyrimidine nucleotide biosynthesis in vitro [2]: inhibition of pyrimidine nucleotide biosynthesis in vitro
- activity against P388 tumor system (P388 tumor): active
- water solubility (in words) (solubility; water): high water solubility
- activity against B16 tumor system (B16 tumor): active

SMILES: O=C(CP(=O)(O)O)N[C@@H](CC(=O)OCc1ccccc1)C(=O)OCc1ccccc1 [XI, L-Aspartic acid, N-(phosphonoacetyl)-, dibenzyl ester, complexed with cyclohexylamine]
- fold less active than tetrasodium PALA (tumor systems): approximately 100 fold
- hygroscopicity (in words) (hygroscopic character): apparently less hygroscopic than (X)

SMILES: O=C(CP(=O)(O)O)N[C@@H](CC(=O)OCc1ccccc1)C(=O)OCc1ccccc1 [X]
- fold less active than tetrasodium PALA (tumor systems): approximately 100 fold
- hygroscopicity (in words) (hygroscopic character): markedly hygroscopic

SMILES: O=C(O)C[C@H](NC(=O)CP(=O)(O)O)C(=O)O [calcium salt of PALA]
- water solubility (in words) (solubility; water): dissolves in water permitting ready formulation
- rate of dissolution in water (solubility; water, results tentative): dissolves relatively slowly

SMILES: O=C(O)C[C@H](NC(=O)CP(=O)(O)O)C(=O)O [cyclohexylamine salt]
- hygroscopicity (in words) (hygroscopic character): completely nonhygroscopic

SMILES: O=C([O-])C[C@H](NC(=O)CP(=O)(O)O)C(=O)[O-].[Na+].[Na+] [disodium PALA, L-Aspartic acid, N-(phosphonoacetyl)-, disodium salt]
- physical state after moisture uptake (hygroscopic character): eventually take up enough moisture so as to lose their solid characteristics
- hygroscopicity (in words) (hygroscopic character; disodium salt): less hygroscopic than tetrasodium PALA
- hygroscopicity (in words) (hygroscopic character; listed as Disodium PALA, disodium salt): less hygroscopic than the tetrasodium compound
- structural integrity by NMR [3]: retained its structural integrity
- change in thin layer chromatography ([3]; believed to be an ester): formation of a new, faster-running spot
- pH of aqueous solution ([4]; 2% solution in water): 4.08
- water solubility (in words) (solubility; water): extremely water soluble
- solubility (solubility; water, solvent-free material): > 950 mg/mL

SMILES: O=C(O)C[C@H](NC(=O)CP(=O)(O)O)C(=O)O [tetrasodium PALA, L-Aspartic acid, N-(phosphonoacetyl)-, tetrasodium salt]
- hygroscopicity (in words) (hygroscopic character): hygroscopic; also recorded: high degree of hygroscopicity
- physical state after moisture uptake (hygroscopic character): eventually take up enough moisture so as to lose their solid characteristics
- rate of absorption of atmospheric moisture relative to the disodium salt (hygroscopic character; tetrasodium versus disodium salt, solvent-free material): 1.5 times faster
- pH when formulated in water ([4]; formulated in water): 9.2
- physiological acceptability of alkalinity in water ([4]; formulated in water, pH 9.2): alkaline (pH 9.2) to a degree generally considered harmful physiologically
- activity in the expected tumor systems (expected tumor systems): active in the expected tumor systems

From patent publication US4179464A, “Preparation of N-(phosphonoacetyl)-L-aspartic acid” (priority 1978, dated 1979)
